Experimental data reported in patent publication US11883389B2, “Formulations of 2-(4-chlorophenyl)-N-((2-(2,6- dioxopiperidin-3-yl)-1-oxoisoindolin-5-yl)methyl)-2,2-difluoroacetamide” (Celgene Corporation, priority 2016, dated 2024).

What was measured:
[1] = hygroscopicity / dynamic vapor sorption analysis; format: physicochemical; details: for water uptake (DVS): RH increased from about 0% to about 90% RH
Method: In certain embodiments, Form A is characterized by dynamic vapor sorption analysis. […] In certain embodiments, Form A comprises less than 0.1% water as determined in a coulometric Karl Fischer (KF) titrator equipped with an oven sample processor set at 225° C.
In certain embodiments, Form B is characterized by dynamic vapor sorption analysis. […] In certain embodiments, Form B comprises less than 0.1% water as determined in a coulometric Karl Fischer (KF) titrator equipped with an oven sample processor set at 225° C.
In certain embodiments, Form C is characterized by dynamic vapor sorption analysis. […] In certain embodiments, Form C comprises less than 0.1% water as determined in a coulometric Karl Fischer (KF) titrator equipped with an oven sample processor set at 225° C.

[2] = physchem; format: physicochemical; details: organic solvent or mixture
Source text: Due to the poor water solubility of Compound 1, Form C, a cosolvent system was required to solubilize the drug compound in a solution prior to lyophilization. Several solubilizing agents and solvents that were considered in this example include hydroxypropyl-beta-cyclodextrin (HPβCD), Sulfobutylether-β-cyclodextrin sodium salt (SBEβCD; Captisol®), Tert-butyl alcohol (TBA), and dimethylacetamide (DMA).
When the SBEβCD concentration increased from 30% to 40%, the enhancement in drug solubility was very limited.

[3] = pH 5
[4] = physchem; details: aqueous buffer

Row | SMILES | water uptake (DVS) [1] | solubility [2] [mg/mL] | Hygroscopicity [1] | Solution Stability [3] | solubility [4] [mg/mL]
1 | O=C1CCC(N2Cc3cc(CNC(=O)C(F)(F)c4ccc(Cl)cc4)ccc3C2=O)C(=O)N1 (single isomer, unassigned) [Form A, 2-(4-Chlorophenyl)-N-((2-(2,6-dioxopiperidin-3-yl)-1-oxoisoindolin-5-yl)methyl)-2,2-difluoroacetamide] | about 1.2 % w/w |  |  |  | 
2 | O=C1CCC(N2Cc3cc(CNC(=O)C(F)(F)c4ccc(Cl)cc4)ccc3C2=O)C(=O)N1 (single isomer, unassigned) [Form C, 2-(4-Chlorophenyl)-N-((2-(2,6-dioxopiperidin-3-yl)-1-oxoisoindolin-5-yl)methyl)-2,2-difluoroacetamide] | about 0.6 % w/w | < 166 |  |  | 
3 | O=C1CCC(N2Cc3cc(CNC(=O)C(F)(F)c4ccc(Cl)cc4)ccc3C2=O)C(=O)N1 (stereo not shown) [Compound 1, 2-(4-chlorophenyl)-N-((2-(2,6-dioxopiperidin-3-yl)-1-oxoisoindolin-5-yl)methyl)-2,2-difluoroacetamide] |  |  | Not hygroscopic | DS is not stable in solution at pH of 5.0 or above. | ≤ 0.001
4 | O=C1CCC(N2Cc3cc(CNC(=O)C(F)(F)c4ccc(Cl)cc4)ccc3C2=O)C(=O)N1 (stereo not shown) [Form B, 2-(4-chlorophenyl)-N-((2-(2,6-dioxopiperidin-3-yl)-1-oxoisoindolin-5-yl)methyl)-2,2-difluoroacetamide] | about 1.4 % w/w |  |  |  | 
